The NIST ThermoML archive (doi:10.1016/j.jct.2019.03.007)
± gives the expanded uncertainty stated by the source.

Test: molar heat capacity at constant pressure
Details: 101.33 kPa, Crystal 1, DSC

O=[N+]([O-])[O-].O=[N+]([O-])[O-].[Ca+2] [calcium nitrate]
Details | molar heat capacity at constant pressure [J/K/mol]
588.78 K | 184.89 ± 13
589 K | 182.82 ± 13
589.78 K | 184.99 ± 13
590 K | 182.96 ± 13
590.78 K | 185.09 ± 13
591 K | 183.01 ± 13
591.78 K | 185.18 ± 13
592 K | 183.11 ± 13
592.78 K | 185.28 ± 13
593 K | 183.23 ± 13
593.78 K | 185.38 ± 13
594 K | 183.3 ± 13
594.78 K | 185.47 ± 13
595 K | 183.39 ± 13
595.78 K | 185.57 ± 13
596 K | 183.46 ± 13
596.78 K | 185.66 ± 13
597 K | 183.59 ± 13
597.78 K | 185.76 ± 13
598 K | 183.69 ± 13
598.78 K | 185.85 ± 13
599 K | 183.86 ± 13
599.78 K | 185.95 ± 13
600 K | 183.94 ± 13
600.78 K | 186.04 ± 13
601 K | 184.09 ± 13
601.78 K | 186.13 ± 13
602 K | 184.37 ± 13
602.78 K | 186.22 ± 13
603 K | 184.48 ± 13
603.78 K | 186.31 ± 13
604 K | 184.5 ± 13
604.78 K | 186.4 ± 13
605 K | 184.57 ± 13
605.78 K | 186.49 ± 13
606 K | 184.76 ± 13
606.78 K | 186.58 ± 13
607 K | 184.8 ± 13
607.78 K | 186.67 ± 13
608 K | 184.92 ± 13
608.78 K | 186.76 ± 13
609 K | 184.95 ± 13
609.78 K | 186.85 ± 13
610 K | 185 ± 13
610.78 K | 186.93 ± 13
611 K | 185.16 ± 13
611.78 K | 187.02 ± 13
612 K | 185.17 ± 13
612.78 K | 187.1 ± 13
613 K | 185.37 ± 13
613.78 K | 187.19 ± 13
614 K | 185.43 ± 13
614.78 K | 187.28 ± 13
615 K | 185.38 ± 13
615.78 K | 187.37 ± 13
616 K | 185.46 ± 13
616.78 K | 187.46 ± 13
617 K | 185.59 ± 13
617.78 K | 187.56 ± 13
618 K | 185.67 ± 13
618.78 K | 187.65 ± 13
619 K | 185.79 ± 13
619.78 K | 187.75 ± 13
620 K | 185.94 ± 13
620.78 K | 187.84 ± 13
621 K | 185.97 ± 13
621.78 K | 187.94 ± 13
622 K | 185.98 ± 13
622.78 K | 188.03 ± 13
623 K | 186.1 ± 13
623.78 K | 188.13 ± 13
624 K | 186.22 ± 13
624.78 K | 188.23 ± 13
625 K | 186.24 ± 13
625.78 K | 188.32 ± 13
626 K | 186.32 ± 13
626.78 K | 188.42 ± 13
627 K | 186.29 ± 13
627.78 K | 188.51 ± 13
628 K | 186.36 ± 13
628.78 K | 188.61 ± 13
629 K | 186.58 ± 13
629.78 K | 188.7 ± 13
630 K | 186.72 ± 13
630.78 K | 188.8 ± 13
631 K | 186.76 ± 13
631.78 K | 188.9 ± 13
632 K | 186.86 ± 13
632.78 K | 189 ± 13
633 K | 186.9 ± 13
633.78 K | 189.1 ± 13
634 K | 187.01 ± 13
634.78 K | 189.2 ± 13
635 K | 187.13 ± 13
635.78 K | 189.3 ± 13
636 K | 187.08 ± 13
636.78 K | 189.41 ± 13
637 K | 187.29 ± 13
637.78 K | 189.51 ± 13
638 K | 187.33 ± 13
638.78 K | 189.61 ± 13
639 K | 187.55 ± 13
639.78 K | 189.71 ± 13
640 K | 187.7 ± 13
640.78 K | 189.82 ± 13
641 K | 187.58 ± 13
641.78 K | 189.92 ± 13
642 K | 187.69 ± 13
642.78 K | 190.01 ± 13
643 K | 187.72 ± 13
643.78 K | 190.11 ± 13
644 K | 187.93 ± 13
644.78 K | 190.2 ± 13
645 K | 188.1 ± 13
645.78 K | 190.29 ± 13
646 K | 188.11 ± 13
646.78 K | 190.39 ± 13
647 K | 188.18 ± 13
647.78 K | 190.49 ± 13
648 K | 188.31 ± 13
648.78 K | 190.58 ± 13
649 K | 188.36 ± 13
649.78 K | 190.69 ± 13
650 K | 188.66 ± 13
650.78 K | 190.8 ± 13
651 K | 188.76 ± 13
651.78 K | 190.9 ± 13
652 K | 188.78 ± 13
652.78 K | 191.02 ± 13
653 K | 188.91 ± 13
653.78 K | 191.13 ± 13
654 K | 188.99 ± 13
654.78 K | 191.25 ± 13
655 K | 189.03 ± 13
655.78 K | 191.36 ± 13
656 K | 189.11 ± 13
656.78 K | 191.46 ± 13
657 K | 189.18 ± 13
657.78 K | 191.57 ± 13
658 K | 189.28 ± 13
658.78 K | 191.67 ± 13
659 K | 189.43 ± 13
659.78 K | 191.77 ± 13
660 K | 189.5 ± 13
660.78 K | 191.87 ± 13
661 K | 189.61 ± 13
661.78 K | 191.96 ± 13
662 K | 189.79 ± 13
662.78 K | 192.06 ± 13
663 K | 189.99 ± 13
663.78 K | 192.15 ± 13
664 K | 190.04 ± 13
664.78 K | 192.23 ± 13
665 K | 190.04 ± 13
665.78 K | 192.32 ± 13
666 K | 190.16 ± 13
666.78 K | 192.4 ± 13
667 K | 190.23 ± 13
667.78 K | 192.49 ± 13
668 K | 190.12 ± 13
668.78 K | 192.56 ± 13
669 K | 190.21 ± 13
669.78 K | 192.64 ± 13
670 K | 190.28 ± 13
670.78 K | 192.72 ± 13
671 K | 190.33 ± 13
671.78 K | 192.79 ± 13
672 K | 190.55 ± 13
672.78 K | 192.86 ± 13
673 K | 190.57 ± 13
673.78 K | 192.94 ± 13
674 K | 190.71 ± 13
674.78 K | 193.03 ± 13
675 K | 190.83 ± 13
675.78 K | 193.12 ± 13
676 K | 190.98 ± 13
676.78 K | 193.22 ± 13
677 K | 191.19 ± 13
677.78 K | 193.31 ± 13
678 K | 191.02 ± 13
678.78 K | 193.41 ± 13
679 K | 190.93 ± 13
679.78 K | 193.5 ± 13
680 K | 191.02 ± 13
680.78 K | 193.6 ± 13
681 K | 191.22 ± 13
681.78 K | 193.69 ± 13
682 K | 191.4 ± 13
682.78 K | 193.78 ± 13
683 K | 191.29 ± 13
683.78 K | 193.87 ± 14
684 K | 191.45 ± 13
684.78 K | 193.96 ± 14
685 K | 191.66 ± 13
685.78 K | 194.03 ± 14
686 K | 191.74 ± 13
686.78 K | 194.08 ± 14
687 K | 191.8 ± 13
687.78 K | 194.13 ± 14
688 K | 191.86 ± 13
688.78 K | 194.18 ± 14
689 K | 191.92 ± 13
689.78 K | 194.23 ± 14
690 K | 192.07 ± 13
690.78 K | 194.31 ± 14
691 K | 192.16 ± 13
691.78 K | 194.39 ± 14
692 K | 192.21 ± 13
692.78 K | 194.47 ± 14
693 K | 192.34 ± 13
693.78 K | 194.54 ± 14
694 K | 192.63 ± 13
694.78 K | 194.6 ± 14
695 K | 192.66 ± 13
695.78 K | 194.65 ± 14
696 K | 192.73 ± 13
696.78 K | 194.69 ± 14
697 K | 192.85 ± 13
697.78 K | 194.72 ± 14
698 K | 192.92 ± 13
698.78 K | 194.76 ± 14
699 K | 192.96 ± 13
699.78 K | 194.82 ± 14
700 K | 193.02 ± 13
700.78 K | 194.88 ± 14
701 K | 192.93 ± 13
701.78 K | 194.97 ± 14
702 K | 193.11 ± 13
702.78 K | 195.08 ± 14
703 K | 193.19 ± 13
703.78 K | 195.21 ± 14
704 K | 193.21 ± 13
704.78 K | 195.34 ± 14
705 K | 193.35 ± 13
705.78 K | 195.47 ± 14
706 K | 193.66 ± 14
706.78 K | 195.61 ± 14
707 K | 193.92 ± 14
707.78 K | 195.75 ± 14
708 K | 194.3 ± 14
708.78 K | 195.89 ± 14
709 K | 194.69 ± 14
709.78 K | 196.04 ± 14
710 K | 194.54 ± 14
710.78 K | 196.23 ± 14
711 K | 194.48 ± 14
711.78 K | 196.47 ± 14
712 K | 194.48 ± 14
712.78 K | 196.76 ± 14
713 K | 194.61 ± 14
713.78 K | 197.06 ± 14
714.78 K | 197.32 ± 14
715.78 K | 197.53 ± 14
716.78 K | 197.7 ± 14
717.78 K | 197.7 ± 14
718.78 K | 197.46 ± 14
